{"source": "paper PMC12321279", "about": "“Novel 4,5‐Dihydrothiazole‐Phenylpiperazine Derivatives: Synthesis, Docking Studies and Pharmacological Evaluation as Serotonergic Agents” (Chemmedchem, 2025)", "key": {"5‐HT1A receptor [1]": {"biological_target": "T1, 5‐HT1A receptor (Rattus norvegicus, UniProt P19327)", "T1 construct": "80 μg of hippocampal membrane suspension (the 5‐HT1A assay); from tissue; host or cells: rat (Sprague-Dawley) hippocampus membranes", "T1 sequence (P19327 1-422)": "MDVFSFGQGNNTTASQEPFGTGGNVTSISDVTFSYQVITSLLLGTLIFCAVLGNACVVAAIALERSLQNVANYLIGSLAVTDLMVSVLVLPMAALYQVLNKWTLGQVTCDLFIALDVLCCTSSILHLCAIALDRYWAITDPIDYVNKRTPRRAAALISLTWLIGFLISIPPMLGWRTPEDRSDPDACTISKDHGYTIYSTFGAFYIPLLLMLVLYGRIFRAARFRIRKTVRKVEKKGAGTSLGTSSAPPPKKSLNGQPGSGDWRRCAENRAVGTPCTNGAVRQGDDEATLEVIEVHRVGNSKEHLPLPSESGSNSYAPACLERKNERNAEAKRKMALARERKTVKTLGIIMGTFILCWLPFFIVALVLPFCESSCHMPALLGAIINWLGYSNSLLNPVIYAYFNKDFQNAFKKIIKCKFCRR", "assay": "5‐HT1A competition binding assay ([3H]8‐OH‐DPAT, hippocampal membranes)", "settings": "1 nM [3H]8‐OH‐DPAT", "description": "Sprague‐Dawley rats were sacrificed by isoflurane overdose. Brains were rapidly removed and placed on ice. Hippocampi (for the 5‐HT1A assay) and frontal cortices (for the 5‐HT2A and 5‐HT2C assays) were dissected on a Petri dish. The tissue from 10 rats was homogenized in 30 vol. homogenization buffer (50 mM Tris–HCl, […], 1 mM EDTA, 1 mM dithiothreitol) with a handheld Teflon‐glass homogenizer. The homogenate was centrifuged at 48,000 × g at 4 °C for 15 min. The pellet was suspended and homogenized in the homogenization buffer and incubated for 10 min. at 36 °C. The centrifugation and suspension steps were repeated twice. The final pellet was homogenized in 5 vol. 50 mM Tris–HCl, pH = 7.4 buffer and stored at −80 °C for no longer than 6 months. […] For the 5‐HT2C assay, compounds were incubated in duplicate with 5 nM [^3H]mesulergine (specific activity: 80.2 Ci mmol^−1, Revvity, MA, USA) for 60 min. at 36 °C in a 50 mM Tris‐HCl (pH 7.4) buffer, supplemented with 5 mM MgCl2, 140 mM NaCl, 1 mM DTT, 1 mM CaCl2, 10 μM pargyline and 160μg of the frontal cortex membrane suspension. Non‐specific binding was determined with 10μM serotonin. The final DMSO concentration in the assay was 5%. After incubation, the reaction mixture was deposited onto Unifilter GF/C plates (Revvity, MA, USA) presoaked in 0.4% PEI (or 0.4% PEI and 0.5% Triton X‐100 for the 5‐HT2C assay) for 1 h with the FilterMate‐96 Harvester (Revvity, MA, USA). Then, each well was washed with 2 mL of 50 mM Tris–HCl (pH 7.4) buffer to separate bound ligands from free and the plates were left to dry overnight. Then, 35μl of Microscint‐20 scintillation fluid (Revvity, MA, USA) was added to each filter well and left to equilibrate for 2h. Filter‐bound radioactivity was counted in a MicroBeta2 LumiJet scintillation counter (Revvity, MA, USA). Binding curves were fitted with one site non‐linear regression. Binding affinity (pKi and Ki) for each compound was calculated from the […] values with the Cheng‐Prusoff equation from two separate experiments."}, "5‐HT1A receptor [2]": {"biological_target": "T1, 5‐HT1A receptor", "assay": "5‐HT1A receptor activation in the [35S]GTP‐γ‐S assay (hippocampal membranes)", "assay_type": "biochemical", "settings": "[35S]GTPγS; for Emax: read-out: Emax (%) ± SEM, 5‐HT1A receptor G‐protein stimulation; for agonist activity for the 5‐HT1A receptor (classification in words): efficacy compared with 8‐OH‐DPAT", "description": "Seven compound concentrations equally spaced on a log scale (10–4 M to 10–10 M) were incubated in duplicate with hippocampal membrane preparations (5μg per well) in assay buffer (50 mM Tris‐HCl, pH = 7.4, 1 mM EGTA, 3 mM MgCl2, 100 mM NaCl, and 30 μM GDP) and 0.08 nM [^35S]GTP‐γ‐S (specific activity: 1250 Ci mmole^−1, Revvity). Nonspecific binding was determined with 10μM of unlabeled GTP‐γ‐S. The final DMSO concentration in the assay was 5%. The reaction mixture was incubated for 90 min. at 30 °C on an orbital shaker set at 250 rpm. Next, the reaction mixture was deposited under vacuum with the FilterMate Harvester (Revvity, USA) onto Unifilter GF/C Plates (Revvity, MA, USA) presoaked with wash buffer (50 mM Tris‐HCl, pH = 7.4). The wells were then rapidly washed with 2 mL of wash buffer. Filter plates were dried overnight at room temperature. Once completely dry, 35 μl of MicroScint PS (Revvity, MA, USA) scintillation fluid was added to each well. Radioactivity was counted in a MicroBeta2 LumiJet scintillation counter (Revvity, MA, USA). Data were analyzed with GraphPad Prism 5.0 software (GraphPad Software, San Diego California USA, www.graphpad.com). The curves were fitted with three‐parameter non‐linear regression model."}, "5‐HT2A receptor": {"biological_target": "5‐HT2A receptor (Rattus norvegicus, UniProt P14842)", "sequence (P14842 whole entry)": "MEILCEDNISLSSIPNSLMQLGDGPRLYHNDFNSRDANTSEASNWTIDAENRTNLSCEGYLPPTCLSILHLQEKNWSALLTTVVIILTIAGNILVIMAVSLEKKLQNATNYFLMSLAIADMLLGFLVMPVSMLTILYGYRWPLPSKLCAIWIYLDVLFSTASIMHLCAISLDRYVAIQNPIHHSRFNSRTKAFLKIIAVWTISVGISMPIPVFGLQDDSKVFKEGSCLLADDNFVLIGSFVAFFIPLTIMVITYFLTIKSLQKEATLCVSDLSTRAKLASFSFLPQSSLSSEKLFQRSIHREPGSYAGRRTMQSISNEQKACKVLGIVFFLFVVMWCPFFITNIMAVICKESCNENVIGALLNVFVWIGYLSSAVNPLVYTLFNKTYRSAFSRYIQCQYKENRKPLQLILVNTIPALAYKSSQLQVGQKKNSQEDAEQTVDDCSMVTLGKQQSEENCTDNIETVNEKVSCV", "assay": "5‐HT2A competition binding assay ([3H]ketanserin, frontal cortex membranes)", "set-up": "from tissue; host or cells: rat (Sprague-Dawley) frontal cortex membranes", "settings": "1 nM [3H]ketanserin"}, "[3]": {"settings": "95% CI in brackets, read-out: 5‐HT1A Ki (95% CI)"}, "[4]": {"settings": "rat hippocampal membranes, 95% CI in brackets, read-out: EC50 (95% CI, μM), 5‐HT1A receptor G‐protein stimulation"}, "[5]": {"settings": "rat hippocampal membranes, read-out: pEC50, 5‐HT1A receptor G‐protein stimulation (converted)"}, "[6]": {"settings": "95% CI in brackets, read-out: 5‐HT2A Ki (95% CI)"}, "[7]": {"settings": "read-out: 5‐HT2A pKi (converted)"}, "[8]": {"settings": "read-out: 5‐HT1A pKi (converted)"}}, "note": "Like-named read-outs stand apart in the source and are kept apart here.", "data": [{"smiles": "O=C(NCCCN1CCN(c2ccccc2C2=NCCS2)CC1)c1ccccn1", "note": "[FG‐1, N‐(3‐(4‐(2‐(4,5‐dihydrothiazol‐2‐yl) phenyl) piperazin‐1‐yl) propyl) picolinamide]", "values": [{"measurement": "Ki", "setting": "5‐HT1A receptor [1]; [3]", "result": 2.35, "unit": "µM"}, {"measurement": "EC50", "setting": "5‐HT1A receptor [2]; [4]", "result": 16.5, "unit": "µM"}, {"measurement": "Emax", "setting": "5‐HT1A receptor [2]; rat hippocampal membranes", "result": "138 ± 11.5", "unit": "%"}, {"measurement": "EC50", "setting": "5‐HT1A receptor [2]; [5]", "result": 20, "unit": "µM"}, {"measurement": "Ki", "setting": "5‐HT2A receptor; [6]", "result": 3.13, "unit": "µM"}]}, {"smiles": "O=C(NCCCN1CCN(c2cccc(C3=NCCS3)c2)CC1)c1ccccn1", "note": "[FG‐2, N‐(3‐(4‐(3‐(4,5‐dihydrothiazol‐2‐yl) phenyl) piperazin‐1‐yl) propyl) picolinamide]", "values": [{"measurement": "Ki", "setting": "5‐HT1A receptor [1]; [3]", "result": 1.86, "unit": "µM"}, {"measurement": "EC50", "setting": "5‐HT1A receptor [2]; [4]", "result": 125, "unit": "µM"}, {"measurement": "Emax", "setting": "5‐HT1A receptor [2]; rat hippocampal membranes", "result": "136 ± 10.2", "unit": "%"}, {"measurement": "Ki", "setting": "5‐HT2A receptor; [6]", "result": 2.9, "unit": "µM"}, {"measurement": "Ki", "setting": "5‐HT2A receptor; [7]", "result": 2.95, "unit": "µM"}]}, {"smiles": "O=C(NCCCN1CCN(c2ccccc2C2=NCCS2)CC1)c1ccncc1", "note": "[FG‐4, N‐(3‐(4‐(2‐(4,5‐dihydrothiazol‐2‐yl) phenyl) piperazin‐1‐yl) propyl) isonicotinamide]", "values": [{"measurement": "Ki", "setting": "5‐HT1A receptor [1]; [3]", "result": 1.54, "unit": "µM"}, {"measurement": "Emax", "setting": "5‐HT1A receptor [2]; rat hippocampal membranes", "result": "132 ± 14.9", "unit": "%"}, {"measurement": "EC50", "setting": "5‐HT1A receptor [2]; [5]", "result": 50.1, "unit": "µM"}, {"measurement": "Ki", "setting": "5‐HT2A receptor; [6]", "result": 4.7, "unit": "µM"}]}, {"smiles": "O=C(NCCCN1CCN(c2cccc(C3=NCCS3)c2)CC1)c1ccncc1", "note": "[FG‐5, N‐(3‐(4‐(3‐(4,5‐dihydrothiazol‐2‐yl) phenyl) piperazin‐1‐yl) propyl) isonicotinamide]", "values": [{"measurement": "Ki", "setting": "5‐HT1A receptor [1]; [3]", "result": 1.1, "unit": "µM"}, {"measurement": "EC50", "setting": "5‐HT1A receptor [2]; [4]", "result": 18.2, "unit": "µM"}, {"measurement": "Emax", "setting": "5‐HT1A receptor [2]; rat hippocampal membranes", "result": "185 ± 17.6", "unit": "%"}, {"measurement": "Ki", "setting": "5‐HT2A receptor; [6]", "result": 4.43, "unit": "µM"}]}, {"smiles": "O=C(NCCCN1CCN(c2ccc(C3=NCCS3)cc2)CC1)c1ccncc1", "note": "[FG‐6, N‐(3‐(4‐(4‐(4,5‐dihydrothiazol‐2‐yl) phenyl) piperazin‐1‐yl) propyl) isonicotinamide]", "values": [{"measurement": "Ki", "setting": "5‐HT1A receptor [1]; [8]", "result": 26.3, "unit": "µM"}, {"measurement": "EC50", "setting": "5‐HT1A receptor [2]; [4]", "result": 9.4, "unit": "µM"}, {"measurement": "Emax", "setting": "5‐HT1A receptor [2]; rat hippocampal membranes", "result": "184 ± 11", "unit": "%"}, {"measurement": "agonist activity for the 5‐HT1A receptor (classification in words)", "setting": "5‐HT1A receptor [2]", "result": "full agonists"}, {"measurement": "Ki", "setting": "5‐HT2A receptor; [6]", "result": 4.6, "unit": "µM"}]}, {"smiles": "O=C1C2C3C=CC(C3)C2C(=O)N1OCCCN1CCN(c2ccccc2C2=NCCS2)CC1", "note": "(stereo not shown) [FG‐7, 2‐(3‐(4‐(2‐(4,5‐dihydrothiazol‐2‐yl) phenyl) piperazin‐1‐yl) propoxy)‐3a,4,7,7a‐tetrahydro‐1 H‐4,7‐methanoisoindole‐1,3(2 H)‐dione]", "values": [{"measurement": "Ki", "setting": "5‐HT1A receptor [1]; [3]", "result": 0.054, "unit": "µM"}, {"measurement": "EC50", "setting": "5‐HT1A receptor [2]; [4]", "result": 3.01, "unit": "µM"}, {"measurement": "Emax", "setting": "5‐HT1A receptor [2]; rat hippocampal membranes", "result": "177 ± 3.3", "unit": "%"}, {"measurement": "agonist activity for the 5‐HT1A receptor (classification in words)", "setting": "5‐HT1A receptor [2]", "result": "full agonists"}, {"measurement": "Ki", "setting": "5‐HT2A receptor; [6]", "result": 2.86, "unit": "µM"}]}, {"smiles": "O=C1C2C3C=CC(C3)C2C(=O)N1OCCCN1CCN(c2cccc(C3=NCCS3)c2)CC1", "note": "(stereo not shown) [FG‐8, 2‐(3‐(4‐(3‐(4,5‐dihydrothiazol‐2‐yl) phenyl) piperazin‐1‐yl) propoxy)‐3a,4,7,7a‐tetrahydro‐1H‐4,7‐methanoisoindole‐1,3(2H)‐dione]", "values": [{"measurement": "Ki", "setting": "5‐HT1A receptor [1]; [3]", "result": 0.71, "unit": "µM"}, {"measurement": "Ki", "setting": "5‐HT1A receptor [1]; [8]", "result": 0.724, "unit": "µM"}, {"measurement": "EC50", "setting": "5‐HT1A receptor [2]; [4]", "result": 7.9, "unit": "µM"}, {"measurement": "Emax", "setting": "5‐HT1A receptor [2]; rat hippocampal membranes", "result": "184 ± 6.6", "unit": "%"}, {"measurement": "agonist activity for the 5‐HT1A receptor (classification in words)", "setting": "5‐HT1A receptor [2]", "result": "full agonists"}, {"measurement": "Ki", "setting": "5‐HT2A receptor; [6]", "result": 1.1, "unit": "µM"}, {"measurement": "Ki", "setting": "5‐HT2A receptor; [7]", "result": 1.15, "unit": "µM"}]}, {"smiles": "O=C(NCCCN1CCN(c2ccc(C3=NCCS3)cc2)CC1)C1CC2C=CC1C2", "note": "(stereo not drawn) [FG‐18, Endo‐ N‐(3‐(4‐(4‐(4,5‐dihydrothiazol‐2‐yl)phenyl)piperazin‐1‐yl)propyl) bicyclo[2.2.1]hept‐5‐ene‐2‐carboxamide]", "values": [{"measurement": "Ki", "setting": "5‐HT1A receptor [1]; [8]", "result": 20, "unit": "µM"}, {"measurement": "Emax (%) ± SEM, 5‐HT1A receptor G‐protein stimulation", "setting": "5‐HT1A receptor [2]; rat hippocampal membranes", "result": "144 ± 8.2", "unit": "%"}, {"measurement": "EC50", "setting": "5‐HT1A receptor [2]; [4]", "result": 8.8, "unit": "µM"}, {"measurement": "EC50", "setting": "5‐HT1A receptor [2]; [5]", "result": 8.91, "unit": "µM"}, {"measurement": "Ki", "setting": "5‐HT2A receptor; [6]", "result": 2.73, "unit": "µM"}]}]}
